Results reported in patent US20250009819A1, “NOVEL PROBIOTICS AND USE THEREOF” (PBLBIOLAB CO., LTD., priority 2021, published 2025).

Assays:
Clostridium difficile = Clostridium difficile proliferation in gut microbiota (PCR); type: cell-based; settings: human feces culture; lactic acid bacteria 1×10^6 CFU/mL; anaerobic 24 hr
Experimental: Fresh human feces were suspended in anaerobic medium (GAM, Nissui Pharmaceutical Co., Ltd., Japan) and allowed to stand for 10 min. The supernatant was diluted with 10,000-fold anaerobic medium, 0.05 mL of the dilution was transplanted into 5 mL of freshly made anaerobic medium, and lactic acid bacteria (1×10^6 CFU/mL) were implanted and incubated anaerobically for 24 hr. This culture medium was divided into two, one was centrifuged (5000 rpm, 20 minutes), the precipitated DNA was isolated using the QIAamp DNA stool mini kit (Qiagen, Germany), and Clostridium difficile (primer: forward, 5′-[…]-3′ (SEQ ID NO: 4); reverse, 5′-[…]-3′ (SEQ ID NO: 5) was quantified by PCR. The reaction product was first treated at 95° C. for 30 seconds, followed by 42 cycles of 5 seconds at 95° C. and 30 seconds at 72° C. for analysis. In addition, one culture medium was sonicated, centrifuged, and filter-sterilized, and the amount of LPS in the supernatant was measured using an ELISA kit.

Neuropeptide Y (NPY) = Neuropeptide Y (NPY) expression in PC12 phaeochromocytoma cells; type: cell-based; settings: LPS 200 ng/ml; lactic acid bacteria 1×10^4 CFU/ml; 24 hr
Experimental: PC12 cells obtained from the Korean Cell Line Bank were cultured in DMEM medium supplemented with 10% FBS and 1% antibiotics, and dispensed at 1×10^6 cells per well in a 12-well plate. Then, LPS (200 ng/ml) was added to each well along with lactic acid bacteria (1×10^4 CFU/ml) and incubated for 24 hr. The cells and supernatants were collected, sonicated and centrifuged, and the amount of NPY in the supernatant was measured by ELISA kit.

IL-10 = IL-10 expression in LPS-treated macrophages (ELISA); type: cell-based, C57BL/6 mice; settings: macrophages treated with lactic acid bacteria and LPS for 24 hours
Experimental: (§1) C57BL/6 mice (male, 6 weeks old, 20-23 g) were subjected to an intraperitoneal injection of 2 ml of sterile 4% thioglycolate solution, and after 96 hours, the mice were anesthetized and injected with 8 ml of RPMI 1640 medium through the peritoneal cavity. Then, after 5-10 minutes, the RPMI medium (macrophages) in the mouse peritoneal cavity was extracted, centrifuged at 1000 g for 10 minutes, and washed again with RPMI 1640 medium twice. Macrophages were seeded in 24-well plates at a count of 0.5×10^6 in each well, and treated with lactic acid bacteria and LPS, an inflammatory response-inducing substance, for 24 hours. TNF-α and IL-10 cytokine expression amount in the culture supernatant was then measured by ELISA Kit.

[1] = Antioxidant activity (DPPH, in vitro); type: biochemical; settings: DPPH 0.2 mM; lactic acid bacteria suspension 1×10^8 CFU/ml; 37° C. 20 min
Experimental: DPPH (2,2-Diphenyl-1-picrylhydrazyl) was dissolved in ethanol to a concentration of 0.2 mM to prepare DPPH solution. Lactic acid bacteria suspension (1×10^8 CFU/ml) or vitamin C solution (1 g/ml) was added to 0.1 ml of the above DPPH solution and incubated at 37° C. for 20 min. The culture was centrifuged at 3000 rpm for 5 min to obtain a supernatant. The absorbance of the supernatant was then measured at 517 nm and the antioxidant activity of the lactic acid bacteria was calculated.

gut microbiota = experiment: LPS production in gut microbiota (ELISA); type: cell-based; settings: human feces culture; lactic acid bacteria 1×10^6 CFU/mL; anaerobic 24 hr
Experimental: Fresh human feces were suspended in anaerobic medium (GAM, Nissui Pharmaceutical Co., Ltd., Japan) and allowed to stand for 10 min. The supernatant was diluted with 10,000-fold anaerobic medium, 0.05 mL of the dilution was transplanted into 5 mL of freshly made anaerobic medium, and lactic acid bacteria (1×10^6 CFU/mL) were implanted and incubated anaerobically for 24 hr.

BDNF = BDNF expression in SH-SY5Y cells; type: cell-based; settings: LPS 200 ng/ml; lactic acid bacteria 1×10^4 CFU/ml; 24 h
Experimental: SH-SY5Y cells obtained from the Korean Cell Line Bank were cultured in DMEM medium supplemented with 10% FBS and 1% antibiotics, and dispensed at 2×10^6 cells per well in a 12-well plate. Then, LPS (200 ng/ml) was added to each well along with lactic acid bacteria (1×10^4 CFU/ml) and incubated for 24 h. The cells and supernatants were collected, sonicated and centrifuged, and the amount of BDNF in the supernatant was measured by ELISA kit.

TNF-α = TNF-α expression in LPS-treated macrophages (ELISA); type: cell-based, C57BL/6 mice; settings: macrophages treated with lactic acid bacteria and LPS for 24 hours
Experimental: as §1

| Substance | Gut microbiota Inhibition of difficile bacteria proliferation (Clostridium difficile) | PC12 cell Induction of NPY expression (Neuropeptide Y (NPY)) | Macrophage Induction of IL-10 expression (IL-10) | Antioxidant activity [1] | Gut microbiota Inhibition of LPS production (gut microbiota) | SHSY5Y cell Induction of BDNF expression (BDNF) | Macrophage Inhibition of TNF-α expression (TNF-α) |
| --- | --- | --- | --- | --- | --- | --- | --- |
| Bifidobacterium catenulatum NK225 | + (weakly (+; >20-60%)) | − (not or less than 20% (−; <20%)) | + (weakly (+; >20-60%)) | + (weakly (+; >20-60%)) | − (not or less than 20% (−; <20%)) | − (not or less than 20% (−; <20%)) | + (weakly (+; >20-60%)) |
| Bifidobacterium catenulatum NK226 | + (weakly (+; >20-60%)) | − (not or less than 20% (−; <20%)) | − (not or less than 20% (−; <20%)) | + (weakly (+; >20-60%)) | − (not or less than 20% (−; <20%)) | + (weakly (+; >20-60%)) | − (not or less than 20% (−; <20%)) |
| Bifidobacterium catenulatum NK227 | + (weakly (+; >20-60%)) | + (weakly (+; >20-60%)) | + (weakly (+; >20-60%)) | + (weakly (+; >20-60%)) | + (weakly (+; >20-60%)) | − (not or less than 20% (−; <20%)) | + (weakly (+; >20-60%)) |
| Bifidobacterium infantis NK213 | + (weakly (+; >20-60%)) | − (not or less than 20% (−; <20%)) | + (weakly (+; >20-60%)) | + (weakly (+; >20-60%)) | − (not or less than 20% (−; <20%)) | − (not or less than 20% (−; <20%)) | + (weakly (+; >20-60%)) |
| Bifidobacterium infantis NK214 | + (weakly (+; >20-60%)) | + (weakly (+; >20-60%)) | − (not or less than 20% (−; <20%)) | ++ (strongly (++; >60-90%)) | + (weakly (+; >20-60%)) | − (not or less than 20% (−; <20%)) | − (not or less than 20% (−; <20%)) |
| Bifidobacterium infantis NK215 | + (weakly (+; >20-60%)) | + (weakly (+; >20-60%)) | + (weakly (+; >20-60%)) | ++ (strongly (++; >60-90%)) | + (weakly (+; >20-60%)) | − (not or less than 20% (−; <20%)) | + (weakly (+; >20-60%)) |
| Bifidobacterium longum NK216 | − (not or less than 20% (−; <20%)) | + (weakly (+; >20-60%)) | − (not or less than 20% (−; <20%)) | ++ (strongly (++; >60-90%)) | ++ (strongly (++; >60-90%)) | − (not or less than 20% (−; <20%)) | − (not or less than 20% (−; <20%)) |
| Bifidobacterium longum NK218 | + (weakly (+; >20-60%)) | + (weakly (+; >20-60%)) | − (not or less than 20% (−; <20%)) | + (weakly (+; >20-60%)) | + (weakly (+; >20-60%)) | + (weakly (+; >20-60%)) | − (not or less than 20% (−; <20%)) |
| Bifidobacterium pseudocatenulatum NK228 | − (not or less than 20% (−; <20%)) | + (weakly (+; >20-60%)) | − (not or less than 20% (−; <20%)) | + (weakly (+; >20-60%)) | ++ (strongly (++; >60-90%)) | + (weakly (+; >20-60%)) | − (not or less than 20% (−; <20%)) |
| Bifidobacterium pseudocatenulatum NK230 | + (weakly (+; >20-60%)) | + (weakly (+; >20-60%)) | − (not or less than 20% (−; <20%)) | + (weakly (+; >20-60%)) | + (weakly (+; >20-60%)) | + (weakly (+; >20-60%)) | − (not or less than 20% (−; <20%)) |
| Lactobacillus casei NK193 | − (not or less than 20% (−; <20%)) | − (not or less than 20% (−; <20%)) | + (weakly (+; >20-60%)) | + (weakly (+; >20-60%)) | + (weakly (+; >20-60%)) | + (weakly (+; >20-60%)) | + (weakly (+; >20-60%)) |
| Lactobacillus casei NK194 | + (weakly (+; >20-60%)) | + (weakly (+; >20-60%)) | + (weakly (+; >20-60%)) | ++ (strongly (++; >60-90%)) | + (weakly (+; >20-60%)) | + (weakly (+; >20-60%)) | − (not or less than 20% (−; <20%)) |
